From article PMC7901646, “Pyrrolo[2′,3′:3,4]cyclohepta[1,2-d][1,2]oxazoles, a New Class of Antimitotic Agents Active against Multiple Malignant Cell Types” (Journal of Medicinal Chemistry, 2020)

Experiments:
SU-DHL-10 (GCB DLBCL) = assay: MTT cell proliferation, lymphoma; format: cell-based; settings: Homo sapiens, SU-DHL10, 72 h; for activity at 1 µM: of untreated cells, read-out: Proliferating cells (%); for IC50: MTT
Description: (§1) All compounds were further tested at the concentration of 1 μM on four cell lines derived from distinct lymphoma histotypes, plus two with secondary resistance to the PI3Kδ inhibitor idelalisib[51] or to the BTK inhibitor ibrutinib.[52] […] For comparison, the same experiments were conducted using compound 3, but the response to it was minimal, and thus it was not considered further.
(§2) Established human cell lines derived from germinal center B-cell (GCB) (SU-DHL-10), activated B-cell (ABC) (HBL1) diffuse large B-cell lymphoma (DLBCL), mantle cell lymphoma (MCL) (MINO), splenic marginal zone lymphoma (SMZL) (parental VL51, VL51 idelalisib resistant clone, VL51 ibrutinib resistant clone) were cultured in culture RPMI-1640 media supplemented with fetal bovine serum (10%), penicillin–streptomycin–neomycin (∼5,000 units of penicillin, 5 mg of streptomycinm and 10 mg of neomycin/mL, Sigma), and L-glutamine (1%). Vincristine sulfate was purchased from Sigma-Aldrich. Cell line identities were confirmed by CellCheck test (IDEXX, BioResearch, Ludwigsburg, Germany). All compounds were dissolved in dimethyl sulfoxide to obtain a stock concentration of 10 mM.
(§3) The antiproliferative activity of all compounds was assessed by using the 3-(4.5-dimethylthiazolyl-2)-2,5-diphenyltetrazolium bromide (MTT) test. Cells were seeded in 96-well plates (nontissue culture treated) at a density of 1 × 10^5 cells/mL and treated with a single concentration of 1 μM for 72 h. […] In this case, cells were treated in triplicate with serially diluted compounds in the appropriate tissue culture medium at a range of 40–10 000 nM. Cells were incubated for 72 h at 37 °C, 5% CO2. Wells containing medium only were included on each plate and served as blanks for absorbance readings. MTT (Sigma, Buchs, Switzerland) was prepared as a 5 mg/mL stock solution in phosphate buffered saline (PBS) and filter-sterilized. MTT solution (22 μL) was added to each well, and tissue culture plates were incubated at 37 °C for 4 h. Cells were then lysed with 25% sodium dodecyl sulfate lysis buffer, and absorbance was read at 570 nm using a Beckman Coulter-AD340 plate reader.

HBL1 (ABC DLBCL) = assay: MTT cell proliferation, lymphoma; format: cell-based; settings: Homo sapiens, 72 h; for activity at 1 µM: of untreated cells, read-out: Proliferating cells (%); for IC50: MTT
Description: as §1, §2, §3

MINO (MCL) = assay: MTT cell proliferation, lymphoma; format: cell-based; settings: Homo sapiens, 72 h; for activity at 1 µM: of untreated cells, read-out: Proliferating cells (%); for IC50: MTT
Description: as §1, §2, §3

VL51 ibrutinib-resistant = assay: MTT cell proliferation, lymphoma; format: cell-based; settings: Homo sapiens, 72 h, of untreated cells, read-out: Proliferating cells (%)
Description: as §1, §2, §3

VL51 (MZL) = assay: MTT cell proliferation, lymphoma; format: cell-based; settings: Homo sapiens, 72 h; for activity at 1 µM: of untreated cells, read-out: Proliferating cells (%); for IC50: MTT
Description: as §1, §2, §3

[1] = tested on: VL51 idelalisib-resistant; assay: MTT cell proliferation, lymphoma; format: cell-based; settings: Homo sapiens, 72 h, of untreated cells, read-out: Proliferating cells (%)
Description: as §1, §2, §3

tubulin colchicine site = tubulin colchicine site (Bos taurus, UniProt P81947+Q6B856); assay: Inhibition of [3H]colchicine binding to tubulin; settings: read-out: inhibition of colchicine binding % inhibition ± SD
Description: Reaction mixtures in the assembly assay contained 9 μM (0.9 mg/mL) tubulin in the assembly assay, and in the colchicine assay they contained 0.5 μM tubulin, 5.0 μM [^3H]colchicine, and 5.0 μM inhibitor.
Analysis of effects on tubulin polymerization was performed by turbidimetry at 350 nm in recording spectrophotometers equipped with electronic temperature controllers as described in detail elsewhere.[71] […] The binding of [^3H]colchicine to tubulin was perfomed as described in detail previously[72] except that the tubulin concentration was reduced from 0.1 mg/mL to 0.05 mg/mL and only one, instead of two, DEAE-cellulose filter was used for each reaction mixture.

bovine brain tubulin = bovine brain tubulin (Bos taurus, UniProt P81947+Q6B856); assay: Inhibition of tubulin assembly (turbidimetry); format: biochemical; settings: 9 μM (0.9 mg/mL) tubulin, 20 min at 30 °C; read-out: inhibition of tubulin assembly IC50 ± SD
bovine brain tubulin, sequence (Q6B856 whole entry): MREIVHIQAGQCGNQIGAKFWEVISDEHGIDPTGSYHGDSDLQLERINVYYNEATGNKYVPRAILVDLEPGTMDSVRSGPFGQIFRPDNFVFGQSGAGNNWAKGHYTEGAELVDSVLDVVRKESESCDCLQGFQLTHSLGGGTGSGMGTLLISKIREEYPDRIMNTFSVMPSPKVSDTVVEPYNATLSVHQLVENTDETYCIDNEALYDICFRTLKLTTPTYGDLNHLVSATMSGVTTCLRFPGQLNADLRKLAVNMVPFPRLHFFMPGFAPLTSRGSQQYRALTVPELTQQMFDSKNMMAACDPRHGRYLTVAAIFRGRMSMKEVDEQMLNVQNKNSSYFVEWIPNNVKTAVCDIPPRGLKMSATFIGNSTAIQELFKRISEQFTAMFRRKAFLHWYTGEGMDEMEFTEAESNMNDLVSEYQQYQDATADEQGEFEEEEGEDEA
bovine brain tubulin, sequence (P81947 whole entry): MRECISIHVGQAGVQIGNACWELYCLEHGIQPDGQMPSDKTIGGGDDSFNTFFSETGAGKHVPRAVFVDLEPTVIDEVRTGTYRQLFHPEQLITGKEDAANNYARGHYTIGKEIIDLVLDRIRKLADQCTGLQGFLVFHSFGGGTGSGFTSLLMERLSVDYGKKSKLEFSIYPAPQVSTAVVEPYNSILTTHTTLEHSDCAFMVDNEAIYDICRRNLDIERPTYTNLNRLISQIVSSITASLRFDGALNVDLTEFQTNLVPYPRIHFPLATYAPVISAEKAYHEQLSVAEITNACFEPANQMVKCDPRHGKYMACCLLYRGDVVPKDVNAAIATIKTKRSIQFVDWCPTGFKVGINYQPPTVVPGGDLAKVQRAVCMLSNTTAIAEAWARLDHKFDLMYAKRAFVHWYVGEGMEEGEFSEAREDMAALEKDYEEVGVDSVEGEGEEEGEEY

tubulin colchicine site, sequence (Q6B856 whole entry): as the sequence (Q6B856 whole entry) above
tubulin colchicine site, sequence (P81947 whole entry): as the sequence (P81947 whole entry) above

SMILES | activity at 1 µM (SU-DHL-10 (GCB DLBCL)) [%] | activity at 1 µM (HBL1 (ABC DLBCL)) [%] | activity at 1 µM (MINO (MCL)) [%] | activity at 1 µM (VL51 ibrutinib-resistant) [%] | activity at 1 µM (VL51 (MZL)) [%] | activity at 1 µM [1] [%] | IC50 (SU-DHL-10 (GCB DLBCL)) [µM] | IC50 (HBL1 (ABC DLBCL)) [µM] | IC50 (MINO (MCL)) [µM] | IC50 (VL51 (MZL)) [µM] | inhibition at 5 µM (tubulin colchicine site) [%] | IC50 (bovine brain tubulin) [µM]
O=S(=O)(c1ccccc1)n1ccc2c1-c1oncc1CCC2 [Compound 51, 9-(Phenylsulfonyl)-4,5,6,9-tetrahydropyrrolo[2′,3′:3,4]cyclohepta[1,2-d][1,2]oxazole] | 110 | 118 | 104 | 121 | 88.1 | 118 |  |  |  |  |  | 
COc1ccccc1Cn1ccc2c1-c1oncc1CCC2 [Compound 54, 9-(2-Methoxybenzyl)-4,5,6,9-tetrahydropyrrolo[2′,3′:3,4]cyclohepta[1,2-d][1,2]oxazole] | 141 | 122 | 112 | 112 | 120 | 136 |  |  |  |  |  | 
CCOC(=O)c1c(Cl)c2c(n1Cc1cc(OC)ccc1OC)-c1oncc1CCC2 [Compound 74, Ethyl 7-Chloro-9-(2,5-dimethoxybenzyl)-4,5,6,9-tetrahydropyrrolo[2′,3′:3,4]cyclohepta[1,2-d][1,2]oxazole-8-carboxylate] | 13.3 | 29 | 9.8 | 44.4 | 40.4 | 37.7 | 0.7 | 1 | 0.8 | 0.5 |  | 
COc1cc(Cn2ccc3c2-c2oncc2CCC3)cc(OC)c1OC [Compound 59, 9-(3,4,5-Trimethoxybenzyl)-4,5,6,9-tetrahydropyrrolo[2′,3′:3,4]cyclohepta[1,2-d][1,2]oxazole] | 94.6 | 114 | 99 | 92.1 | 97.6 | 112 |  |  |  |  |  | 
COc1cccc(Cn2ccc3c2-c2oncc2CCC3)c1 [Compound 55, 9-(3-Methoxybenzyl)-4,5,6,9-tetrahydropyrrolo[2′,3′:3,4]cyclohepta[1,2-d][1,2]oxazole] | 80.3 | 127 | 115 | 125 | 112 | 133 |  |  |  |  |  | 
COc1cc(Cn2ccc3c2-c2oncc2CCC3)cc(OC)c1 [Compound 58, 9-(3,5-Dimethoxybenzyl)-4,5,6,9-tetrahydropyrrolo[2′,3′:3,4]cyclohepta[1,2-d][1,2]oxazole] | 72.4 | 114 | 101 | 73 | 84 | 78.4 |  |  |  |  | 25 ± 3 | 5.7 ± 1
CCOC(=O)c1cc2c(n1C)-c1oncc1CCC2 [Compound 60, Ethyl 9-Methyl-4,5,6,9-tetrahydropyrrolo[2′,3′:3,4]cyclohepta[1,2-d][1,2]oxazole-8-carboxylate] | 61.7 | 146 | 112 | 125 | 108 | 115 |  |  |  |  |  | 
Cn1ccc2c1-c1oncc1CCC2 [Compound 52, 9-Methyl-4,5,6,9-tetrahydropyrrolo[2′,3′:3,4]cyclohepta[1,2-d][1,2]oxazole] | 70.2 | 101 | 104 | 100 | 87.4 | 107 |  |  |  |  |  | 
CCOC(=O)c1c(Cl)c2c(n1Cc1ccccc1OC)-c1oncc1CCC2 [Compound 71, Ethyl 7-Chloro-9-(2-methoxybenzyl)-4,5,6,9-tetrahydropyrrolo[2′,3′:3,4]cyclohepta[1,2-d][1,2]oxazole-8-carboxylate] | 58.2 | 97 | 55.9 | 56.2 | 58.8 | 52.2 | 2.2 | > 5 | 3.4 | 2.4 |  | 
COc1ccc(/C=C\c2cc(OC)c(OC)c(OC)c2)cc1O [CA-4, combretastatin A-4, reference compound] |  |  |  |  |  |  |  |  |  |  | 97 ± 0.9 | 
COc1ccc(Cn2ccc3c2-c2oncc2CCC3)cc1 [Compound 56, 9-(4-Methoxybenzyl)-4,5,6,9-tetrahydropyrrolo[2′,3′:3,4]cyclohepta[1,2-d][1,2]oxazole] | 74.6 | 123 | 109 | 110 | 110 | 127 |  |  |  |  |  | 8.2 ± 0.5
CCOC(=O)c1cc2c(n1Cc1ccccc1)-c1oncc1CCC2 [Compound 61, Ethyl 9-Benzyl-4,5,6,9-tetrahydropyrrolo[2′,3′:3,4]cyclohepta[1,2-d][1,2]oxazole-8-carboxylate] | 65.2 | 124 | 106 | 118 | 93.3 | 117 |  |  |  |  |  | 
CCOC(=O)c1c(Cl)c2c(n1Cc1ccc(OC)cc1)-c1oncc1CCC2 [Compound 73, Ethyl 7-Chloro-9-(4-methoxybenzyl)-4,5,6,9-tetrahydropyrrolo[2′,3′:3,4]cyclohepta[1,2-d][1,2]oxazole-8-carboxylate] | 87.4 | 107 | 99.5 | 102 | 113 | 126 |  |  |  |  |  | 
COC(=O)c1cc2c(n1Cc1ccccc1)-c1oncc1CCC2 [Compound 68, Methyl 9-Benzyl-4,5,6,9-tetrahydropyrrolo[2′,3′:3,4]cyclohepta[1,2-d][1,2]oxazole-8-carboxylate] | 78.9 | 109 | 98.8 | 120 | 94.5 | 123 |  |  |  |  |  | 
CCOC(=O)c1c(Cl)c2c(n1Cc1cccc(OC)c1)-c1oncc1CCC2 [Compound 72, Ethyl 7-Chloro-9-(3-methoxybenzyl)-4,5,6,9-tetrahydropyrrolo[2′,3′:3,4]cyclohepta[1,2-d][1,2]oxazole-8-carboxylate] | 76.9 | 105 | 110 | 103 | 107 | 128 |  |  |  |  |  | 
CCOC(=O)c1c(Cl)c2c(n1C)-c1oncc1CCC2 [Compound 69, Ethyl 7-Chloro-9-methyl-4,5,6,9-tetrahydropyrrolo[2′,3′:3,4]cyclohepta[1,2-d][1,2]oxazole-8-carboxylate] | 78.5 | 103 | 116 | 110 | 93.8 | 121 |  |  |  |  |  | 
CCOC(=O)c1cc2c(n1Cc1cc(OC)ccc1OC)-c1oncc1CCC2 [Compound 65, Ethyl 9-(2,5-Dimethoxybenzyl)-4,5,6,9-tetrahydropyrrolo[2′,3′:3,4]cyclohepta[1,2-d][1,2]oxazole-8-carboxylate] | 71.6 | 111 | 107 | 94 | 86.2 | 96.4 |  |  |  |  |  | 
CCOC(=O)c1cc2c(n1Cc1ccc(OC)cc1)-c1oncc1CCC2 [Compound 64, Ethyl 9-(4-Methoxybenzyl)-4,5,6,9-tetrahydropyrrolo[2′,3′:3,4]cyclohepta[1,2-d][1,2]oxazole-8-carboxylate] | 66.3 | 125 | 112 | 102 | 87.4 | 116 |  |  |  |  |  | 
c1ccc(Cn2ccc3c2-c2oncc2CCC3)cc1 [Compound 53, 9-Benzyl-4,5,6,9-tetrahydropyrrolo[2′,3′:3,4]cyclohepta[1,2-d][1,2]oxazole] | 70.2 | 109 | 109 | 125 | 103 | 128 |  |  |  |  |  | 
